Source: patent US10167262B2, “Herbicidal substituted 3-arylpyrazoles” (FMC CORPORATION, priority 2014, dated 2019)
Like-named read-outs stand apart in the source and are kept apart here.

How the values were obtained:
Type in all cases: in vivo
[1] = system: wild oat (Avena fatua); test: Test C postemergence greenhouse test, plant response rating 0-100; conditions: Avena fatua, post-emergence
Procedure, shortened: (§1)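 Potted in peat/vermiculite mix; postemergence application at 1–4 leaves (2–18 cm); greenhouse 13–15 d; visual score 0–100 relative to untreated plants; dash = no test result.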

[2] = system: chickweed (common chickweed, Stellaria media); test: as above; conditions: Stellaria media, post-emergence
Procedure, shortened: as §1

[3] = system: kochia (Kochia scoparia); test: as above; conditions: Bassia scoparia, post-emergence
Procedure, shortened: as §1

[4] = system: morningglory (Ipomoea coccinea); test: Test C pre-/postemergence greenhouse test, plant response rating 0-100; conditions: Ipomoea; for pest or weed control at 62 g/ha: 62 g ai/ha; for pest or weed control at 125 g/ha: 125 g ai/ha; for pest or weed control at 250 g/ha: 250 g ai/ha
Procedure, shortened: (§2)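 Pre-emergence soil and post-emergence foliar sprays were applied simultaneously to seeded loam–sand pots and to 1–4-leaf plants in peat medium; greenhouse holding lasted 13–15 days, then plants were scored visually from 0 (no effect) to 100 (complete control).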

[5] = system: oilseed rape (Brassica napus); test: as above; conditions: Preemergence
Procedure, shortened: as §2

[6] = system: galium (catchweed bedstraw, Galium aparine); test: as above; conditions: Galium; for pest or weed control at 62 g/ha: 62 g ai/ha; for pest or weed control at 125 g/ha: 125 g ai/ha; for pest or weed control at 250 g/ha: 250 g ai/ha
Procedure, shortened: as §2

[7] = system: large (Lg) crabgrass (Digitaria sanguinalis); test: Test A pre-/postemergence greenhouse herbicide test, visual injury rating 0-100; conditions: Digitaria sanguinalis, 240 h, 1000 g ai/ha, read-out: Plant response rating (0 to 100 scale), Crabgrass, Large
Procedure, shortened: (§3)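 Formulated in non-phytotoxic solvent with surfactant, compounds were applied pre- and postemergence simultaneously. Soil: loam–sand blend. Visual injury, 0 = no effect to 100 = complete control, ~10 days.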

[8] = system: wheat (Triticum aestivum); test: as above; conditions: Triticum aestivum, 240 h, 1000 g ai/ha, read-out: Plant response rating (0 to 100 scale), Wheat
Procedure, shortened: as §3

[9] = system: velvetleaf (Abutilon theophrasti); test: as above; conditions: Abutilon theophrasti, 240 h, 1000 g ai/ha, read-out: Plant response rating (0 to 100 scale), Velvetleaf
Procedure, shortened: as §3

[10] = system: giant foxtail (Setaria faberii); test: as above; conditions: Setaria faberi, 240 h, 1000 g ai/ha, read-out: Plant response rating (0 to 100 scale), Foxtail, Giant
Procedure, shortened: as §3

[11] = system: pigweed (Amaranthus retroflexus); test: as above; conditions: Amaranthus retroflexus, 240 h, 1000 g ai/ha, read-out: Plant response rating (0 to 100 scale), Pigweed
Procedure, shortened: as §3

[12] = system: morningglory (Ipomoea spp.); test: as above; conditions: Ipomoea, 240 h, 1000 g ai/ha, read-out: Plant response rating (0 to 100 scale), Morningglory
Procedure, shortened: as §3

[13] = system: barnyardgrass (Echinochloa crus-galli); test: as above; conditions: Echinochloa crus-galli, 240 h, 1000 g ai/ha, read-out: Plant response rating (0 to 100 scale), Barnyardgrass
Procedure, shortened: as §3

[14] = system: corn (Zea mays); test: as above; conditions: Zea mays, 240 h, 1000 g ai/ha, read-out: Plant response rating (0 to 100 scale), Corn
Procedure, shortened: as §3

[15] = post-emergence, Postemergence, read-out: Plant response rating (0 to 100), Morningglory
[16] = post-emergence, Postemergence, scale 0 to 100
[17] = pre-emergence, Preemergence, read-out: Plant response rating, Morningglory
[18] = pre-emergence, Preemergence, 500 g ai/ha
[19] = post-emergence, Postemergence, read-out: Plant response rating (0 to 100), Galium
[20] = pre-emergence, Preemergence, read-out: Plant response rating, Galium

Clc1cc(Cl)cc(-c2n[nH]cc2C(=NN2CCCC2)c2ccccc2)c1 [Compound 30, N-[[3-(3,5-dichlorophenyl)-1H-pyrazol-4-yl]phenylmethylene]-1-pyrrolidinamine]
pest or weed control at 62 g/ha ([1]; 62 g ai/ha): 0%
pest or weed control at 125 g/ha ([1]; 125 g ai/ha): 0%
pest or weed control at 250 g/ha ([1]; 250 g ai/ha, scale 0 to 100): 0%
pest or weed control at 31 g/ha ([2]; 31 g ai/ha): 100%
pest or weed control at 62 g/ha ([2]; 62 g ai/ha): 100%
pest or weed control at 125 g/ha ([2]; 125 g ai/ha): 100%
pest or weed control at 250 g/ha ([2]; 250 g ai/ha, scale 0 to 100): 100%
pest or weed control at 62 g/ha ([3]; 62 g ai/ha): 40%
pest or weed control at 125 g/ha ([3]; 125 g ai/ha): 85%
pest or weed control at 250 g/ha ([3]; 250 g ai/ha, scale 0 to 100): 98%
pest or weed control at 62 g/ha [4, 15]: 0%
pest or weed control at 125 g/ha [4, 15]: 0%
pest or weed control at 250 g/ha [4, 16]: 0%
pest or weed control at 62 g/ha [4, 17]: 10%
pest or weed control at 125 g/ha [4, 17]: 15%
pest or weed control at 250 g/ha ([4]; pre-emergence, Preemergence): 15%
pest or weed control at 500 g/ha [4, 18]: 15%
Plant response rating, Oilseed Rape ([5]; 62 g ai/ha): 50
Plant response rating, Oilseed Rape ([5]; 125 g ai/ha): 80
Plant response rating, Oilseed Rape ([5]; 250 g ai/ha): 85
Plant response rating, Oilseed Rape ([5]; 500 g ai/ha): 100
pest or weed control at 31 g/ha ([6]; post-emergence, Postemergence, 31 g ai/ha, read-out: Plant response rating (0 to 100), Galium): 0%
pest or weed control at 62 g/ha [6, 19]: 0%
pest or weed control at 125 g/ha [6, 19]: 5%
pest or weed control at 250 g/ha [6, 16]: 5%
pest or weed control at 62 g/ha [6, 20]: 0%
pest or weed control at 125 g/ha [6, 20]: 0%
pest or weed control at 250 g/ha ([6]; pre-emergence, Preemergence): 5%
pest or weed control at 500 g/ha [6, 18]: 10%
pest or weed control at 1000 g/ha ([7]; post-emergence, Postemergence): 0%
pest or weed control at 1000 g/ha ([7]; pre-emergence, Preemergence): 0%
plant injury at 1000 g/ha ([8]; post-emergence, Postemergence): 0%
plant injury at 1000 g/ha ([8]; pre-emergence, Preemergence): 0%
pest or weed control at 1000 g/ha ([9]; post-emergence, Postemergence): 100%
pest or weed control at 1000 g/ha ([9]; pre-emergence, Preemergence): 0%
pest or weed control at 1000 g/ha ([10]; post-emergence, Postemergence): 0%
pest or weed control at 1000 g/ha ([10]; pre-emergence, Preemergence): 0%
pest or weed control at 1000 g/ha ([11]; post-emergence, Postemergence): 100%
pest or weed control at 1000 g/ha ([11]; pre-emergence, Preemergence): 90%
pest or weed control at 1000 g/ha ([12]; post-emergence, Postemergence): 0%
pest or weed control at 1000 g/ha ([12]; pre-emergence, Preemergence): 0%
pest or weed control at 1000 g/ha ([13]; post-emergence, Postemergence): 0%
pest or weed control at 1000 g/ha ([13]; pre-emergence, Preemergence): 0%
plant injury at 1000 g/ha ([14]; post-emergence, Postemergence): 0%
plant injury at 1000 g/ha ([14]; pre-emergence, Preemergence): 0%
